# Experimental data taken from US9376425B2, “Heterocyclic compounds as MDM2 inhibitors for the treatment of cancer” (AMGEN INC., priority 2011, dated 2016).
# Molecular target: T1, human MDM2 (GST-hMDM2 aa 1-188), interaction with biotinylated-p53 (aa 1-83) (Homo sapiens, UniProt Q00987)
# T1 construct: Amino acid residues 1-188 of human MDM2 were expressed; made in house; host or cells: Escherichia coli
# Assay: Homogenous Time-Resolved Fluorescence Assay (HTRF1 assay), inhibition of HDM2-p53 interaction
# Format: binding
# Conditions: 2.5 nM GST-hMDM2, 5 nM biotinylated-p53, 200 mM KF
# Protocol: Homogenous Time-Resolved Fluorescence Assay (HTRF1 Assay)
# Residues 1-83 of human p53 were expressed as an amino-terminal AviTag™-TrxA-6xHis fusion protein (biotinylated p53) in E. coli. Each protein was purified from cell paste by affinity chromatography.
# Specifically, 10 uL of GST-hMDM2 was incubated with 10 ul of diluted compound (various concentrations, serially diluted) in 10% DMSO for 20 minutes at room temperature. 20 uL of biotinylated-p53 was added to the GST-hMDM2+ compound mixture, and then incubated at room temperature for 60 min. 10 uL of detection buffer consisting of SA-XLent, anti-GST cryptate antibody and KF was added to GST-hMDM2, biotinylated-p53 and compound reaction and left at room temperature to reach equilibrium for >4 hrs. The final concentration of DMSO in the reaction was 2%. Time-resolved fluorescence readings were measured on a microplate multilabel reader. Percentage of inhibition was calculated relative to nutlin-3.
# T1 sequence (Q00987 1-188): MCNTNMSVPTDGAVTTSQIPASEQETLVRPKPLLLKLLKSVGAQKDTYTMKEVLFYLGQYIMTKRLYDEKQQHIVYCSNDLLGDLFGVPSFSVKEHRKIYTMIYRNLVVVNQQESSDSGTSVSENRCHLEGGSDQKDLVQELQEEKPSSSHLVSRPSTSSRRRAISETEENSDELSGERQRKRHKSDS
row,IC50 [nM],Structure (SMILES)
1,5200,"O=C(O)C[C@H]1O[C@H](c2cc(Cl)cc(-c3cn[nH]c3)c2)[C@@H](c2ccc(Cl)cc2)N(CC2CC2)C1=O (single isomer, unassigned) [Example 106]"
2,23500,"O=C(O)C[C@@H]1O[C@H](c2cccc(Cl)c2)[C@@H](c2nc3ccccc3s2)N(CC2CC2)C1=O (racemic) [Example 3, 2-((2S,5S,6R)-5-(Benzo[d]thiazol-2-yl)-6-(3-chlorophenyl)-4-(cyclopropylmethyl)-3-oxomorpholin-2-yl)acetic acid and 2-((2R,5R,6S)-5-(Benzo[d]thiazol-2-yl)-6-(3-chlorophenyl)-4-(cyclopropylmethyl)-3-oxomorpholin-2-yl)acetic acid]"
3,1400,"COc1ccc([C@@H]2[C@@H](c3cccc(Cl)c3)OC(CC(=O)O)C(=O)N2CC2CC2)cc1 (single isomer, unassigned) [Example 76]"
4,1100,"O=C(O)CC1O[C@H](c2cc(F)cc(F)c2)[C@@H](c2ccc(Cl)cc2)N(CC2CC2)C1=O (single isomer, unassigned) [Example 96]"
5,1100,"O=C(O)C[C@@H]1O[C@H](c2cccc(Cl)c2)[C@@H](c2ccc(Cl)cn2)N(CC2CC2)C1=O (single isomer, unassigned) [Example 7]"
6,300,"C[C@H](C1CCC1)N1C(=O)[C@@H](CC(=O)O)O[C@H](c2cccc(Cl)c2)[C@H]1c1ccc(Cl)cc1 [Example 20, 2-((2R,5R,6R)-6-(3-Chlorophenyl)-5-(4-chlorophenyl)-4-((R)-1-cyclobutylethyl)-3-oxomorpholin-2-yl)acetic acid]"
7,600,"O=C(O)CC1O[C@H](c2ccnc(Cl)c2)[C@@H](c2ccc(Cl)cc2)N(CC2CC2)C1=O (single isomer, unassigned) [Example 91]"
8,300,"O=C(O)CC1O[C@H](c2cc(F)cc(Cl)c2)[C@@H](c2ccc(Cl)cc2)N(CC2CC2)C1=O (single isomer, unassigned) [Example 84]"
9,1100,"CC[C@H](C(=O)OC(C)(C)C)N1C(=O)[C@@H](CC(=O)O)O[C@H](c2cccc(Cl)c2)[C@H]1c1ccc(Cl)cc1 (single isomer, unassigned) [Example 33]"
10,3300,"O=C(O)C[C@@H]1O[C@H](c2cccc(Cl)c2)[C@@H](c2ccccc2)N(CC2CC2)C1=O [Example 55, 2-((2S,5R,6R)-6-(3-Chlorophenyl)-4-(cyclopropylmethyl)-3-oxo-5-phenylmorpholin-2-yl)acetic acid]"
11,1600,"O=C(O)CC1O[C@H](c2cccc(F)c2)[C@@H](c2ccc(Cl)cc2)N(CC2CC2)C1=O (single isomer, unassigned) [Example 85]"
12,600,"CCCN1C(=O)[C@H](CC(=O)O)O[C@H](c2cccc(Cl)c2)[C@H]1c1ccc(Cl)cc1 [Example 49, 2-((2S,5R,6R)-6-(3-Chlorophenyl)-5-(4-chlorophenyl)-3-oxo-4-propylmorpholin-2-yl)acetic acid]"
13,3500,"COc1cccc([C@H]2OC(CC(=O)O)C(=O)N(CC3CC3)[C@@H]2c2ccc(Cl)cc2)c1 (single isomer, unassigned) [Example 90]"
14,13000,"O=C(O)C[C@H]1O[C@H](c2cccc(Cl)c2)[C@@H](c2ccc(Cl)cc2)NC1=O [Example 35, 2-((2R,5R,6R)-6-(3-Chlorophenyl)-5-(4-chlorophenyl)-3-oxomorpholin-2-yl)acetic acid]"
15,1500,"C[C@@H](c1ccccc1)N1C(=O)[C@@H](CC(=O)O)O[C@H](c2cccc(Cl)c2)[C@H]1c1ccc(Cl)cc1 [Example 26, 2-((2R,5R,6R)-6-(3-Chlorophenyl)-5-(4-chlorophenyl)-3-oxo-4-((S)-1-phenylethyl)morpholin-2-yl)acetic acid]"
16,900,"CCc1ccc([C@@H]2[C@@H](c3cccc(Cl)c3)O[C@@H](CC(=O)O)C(=O)N2CC2CC2)cc1 [Example 58, 2-((2S,5R,6R)-6-(3-Chlorophenyl)-4-(cyclopropylmethyl)-5-(4-ethylphenyl)-3-oxomorpholin-2-yl)acetic acid]"
17,11600,"COc1ccc([C@@H]2[C@@H](c3cccc(Cl)c3)OC(CC(=O)O)C(=O)N2CC2CC2)cn1 (single isomer, unassigned) [Example 73]"
18,3700,"CS(=O)(=O)c1cc(Cl)cc([C@H]2O[C@H](CC(=O)O)C(=O)N(CC3CC3)[C@@H]2c2ccc(Cl)cc2)c1 (single isomer, unassigned) [Example 110]"

row,IC50 [nM],Structure (SMILES)
1,14800,"O=C(O)CC1O[C@H](c2cccc(Cl)c2)[C@@H](c2ccc(Cl)cc2Br)N(CC2CC2)C1=O (single isomer, unassigned) [Example 80]"
2,33500,"O=C(O)CC1O[C@H](c2cccc(OC(F)(F)F)c2)[C@@H](c2ccc(Cl)cc2)N(CC2CC2)C1=O (single isomer, unassigned) [Example 95]"
3,1500,"O=C(O)CC1O[C@H](c2cccc(Cl)c2)[C@@H](c2ccc(Cl)nc2)N(CC2CC2)C1=O (single isomer, unassigned) [Example 72]"
4,200,"O=C(O)C[C@H]1O[C@H](c2cccc(Cl)c2)[C@@H](c2ccc(Cl)cc2)N(C2CCCCC2)C1=O [Example 17, 2-((2R,5R,6R)-6-(3-Chlorophenyl)-5-(4-chlorophenyl)-4-cyclohexyl-3-oxomorpholin-2-yl)acetic acid]"
5,600,"C[C@@H](c1ccccc1)N1C(=O)[C@H](CC(=O)O)O[C@H](c2cccc(Cl)c2)[C@H]1c1ccc(Cl)cc1 [Example 27, 2-((2S,5R,6R)-6-(3-Chlorophenyl)-5-(4-chlorophenyl)-3-oxo-4-((S)-1-phenylethyl)morpholin-2-yl)acetic acid]"
6,300,"O=C(O)C[C@@H]1O[C@H](c2cccc(Cl)c2)[C@@H](c2ccc(Cl)cc2)N(C2CCCCC2)C1=O [Example 16, 2-((2S,5R,6R)-6-(3-Chlorophenyl)-5-(4-chlorophenyl)-4-cyclohexyl-3-oxomorpholin-2-yl)acetic acid]"
7,6100,"COc1cccc([C@H]2OC(CC(=O)O)C(=O)N(CC3CC3)[C@@H]2c2ccc(Cl)cc2)c1 (single isomer, unassigned) [Example 89]"
8,6500,"Cc1cccc([C@H]2OC(CC(=O)O)C(=O)N(CC3CC3)[C@@H]2c2ccc(Cl)cc2)c1 (single isomer, unassigned) [Example 102]"
9,4500,"COc1ccc([C@@H]2[C@@H](c3cccc(Cl)c3)OC(CC(=O)O)C(=O)N2CC2CC2)cn1 (single isomer, unassigned) [Example 74]"
10,800,"O=C(O)CC1O[C@H](c2cccc(Cl)c2)[C@@H](c2ccc(Cl)c(F)c2)N(CC2CC2)C1=O (single isomer, unassigned) [Example 78]"
11,800,"C=CCN1C(=O)[C@@H](CC(=O)O)O[C@H](c2cccc(Cl)c2)[C@H]1c1ccc(Cl)cc1 [Example 46, 2-((2R,5R,6R)-4-Allyl-6-(3-chlorophenyl)-5-(4-chlorophenyl)-3-oxomorpholin-2-yl)acetic acid]"
12,3800,"O=C(O)C[C@@H]1O[C@H](c2cc(Cl)cc(-c3cn[nH]c3)c2)[C@@H](c2ccc(Cl)cc2)N(CC2CC2)C1=O (single isomer, unassigned) [Example 107]"
13,700,"CCCCN1C(=O)[C@H](CC(=O)O)O[C@H](c2cccc(Cl)c2)[C@H]1c1ccc(Cl)cc1 [Example 40, 2-((2S,5R,6R)-4-Butyl-6-(3-chlorophenyl)-5-(4-chlorophenyl)-3-oxomorpholin-2-yl)acetic acid]"
14,4300,"O=C(O)C[C@H]1O[C@H](c2cc(Cl)cc(-c3cncnc3)c2)[C@@H](c2ccc(Cl)cc2)N(CC2CC2)C1=O (single isomer, unassigned) [Example 108]"
15,17500,"O=C(O)CC1O[C@H](c2cccc(Cl)c2)[C@@H](c2ccc(Br)cc2)N(CC2CC2)C1=O (single isomer, unassigned) [Example 67]"
16,2800,"O=C(O)C[C@@H]1O[C@H](c2cc(Cl)cc(-c3cncnc3)c2)[C@@H](c2ccc(Cl)cc2)N(CC2CC2)C1=O (single isomer, unassigned) [Example 109]"
17,500,"O=C(O)CC1O[C@H](c2cc(Cl)cc(Br)c2)[C@@H](c2ccc(Cl)cc2)N(CC2CC2)C1=O (single isomer, unassigned) [Example 104]"
18,900,"O=C(O)C[C@@H]1O[C@H](c2cccc(Cl)c2)[C@@H](c2ccc(Cl)cc2)N(C2CCC2)C1=O [Example 12, 2-((2S,5R,6R)-6-(3-Chlorophenyl)-5-(4-chlorophenyl)-4-cyclobutyl-3-oxomorpholin-2-yl)acetic acid]"

row,Structure (SMILES),IC50 [nM]
1,"O=C(O)/C=C1\O[C@H](c2cccc(Cl)c2)[C@@H](c2ccc(Cl)cc2)N(CC2CC2)C1=O (single isomer, unassigned; isomer 1) [Example 51, (Z)-2-((5R,6R)-6-(3-Chlorophenyl)-5-(4-chlorophenyl)-4-(cyclopropylmethyl)-3-oxomorpholin-2-ylidene)acetic acid or (E)-2-((5R,6R)-6-(3-Chlorophenyl)-5-(4-chlorophenyl)-4-(cyclopropylmethyl)-3-oxomorpholin-2-ylidene)acetic acid (Isomer 1)]",600
2,"O=C(O)C[C@@H]1O[C@H](c2cccc(Cl)c2)[C@@H](c2cc3ccccc3[nH]2)N(CC2CC2)C1=O (single isomer, unassigned) [Example 2, 2-((2S,5R,6R)-6-(3-Chlorophenyl)-4-(cyclopropylmethyl)-5-(1H-indol-2-yl)-3-oxomorpholin-2-yl)acetic acid or 2-((2R,5R,6R)-6-(3-Chlorophenyl)-4-(cyclopropylmethyl)-5-(1H-indol-2-yl)-3-oxomorpholin-2-yl)acetic acid]",31400
